Measurements published in the supplement of paper PMC10307832.

How the values were obtained:
Experiment in all cases: relative viability (nuclei count vs DMSO), 5 days (fraction); higher = more cells survive
[1] = compound: C[C@]1(c2nc3c(C(N)=O)cccc3[nH]2)CCCN1 [Veliparib] + CS(=O)(=O)N1CCN(Cc2cc3nc(-c4cccc5[nH]ncc45)nc(N4CCOCC4)c3s2)CC1 [Pictilisib] (partner 1 µM)
Procedure, shortened: (§1)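 Five library-drug doses in √10 steps were combined with a fixed anchor-drug dose, or a single drug was given alone, by pin tool to lung cancer cell lines in 1536-well plates the day after seeding. Nuclei were stained and counted after 5 days. Relative viability is the nuclei count in treated wells over that in vehicle wells, taken as the median of duplicate plates.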

[2] = compound: COC1=CC=C(C=C1)CN2C=CC3=C2C=C(C=C3)C(=O)NO + COc1cc2c(Oc3ccc(NC(=O)C4(C(=O)Nc5ccc(F)cc5)CC4)cc3F)ccnc2cc1OCCCN1CCOCC1 [Foretinib] (partner 0.25 µM)
Procedure, shortened: as §1

[3] = compound: COC1=CC=C(C=C1)CN2C=CC3=C2C=C(C=C3)C(=O)NO + C[C@@H](Oc1cc(-c2cnn(C3CCNCC3)c2)cnc1N)c1c(Cl)ccc(F)c1Cl [Crizotinib] (partner 1 µM)
Procedure, shortened: as §1

[4] = compound: COC1=CC=C(C=C1)CN2C=CC3=C2C=C(C=C3)C(=O)NO + C[C@]1(O)C[C@@H](c2nc(-c3ccc4ccc(-c5ccccc5)nc4c3)c3c(N)nccn32)C1 [Linsitinib] (partner 1 µM)
Procedure, shortened: as §1

Cell Line | relative viability ([1]; first compound 0.02 µM) | relative viability ([1]; first compound 0.06325 µM) | relative viability ([1]; first compound 0.2 µM) | relative viability ([1]; first compound 0.6325 µM) | relative viability ([1]; first compound 2 µM) | relative viability ([2]; first compound 0.08 µM) | relative viability ([2]; first compound 0.253 µM) | relative viability ([2]; first compound 0.8 µM) | relative viability ([2]; first compound 2.53 µM) | relative viability ([2]; first compound 8 µM) | relative viability ([3]; first compound 0.08 µM) | relative viability ([3]; first compound 0.253 µM) | relative viability ([3]; first compound 0.8 µM) | relative viability ([3]; first compound 2.53 µM) | relative viability ([3]; first compound 8 µM) | relative viability ([4]; first compound 0.08 µM) | relative viability ([4]; first compound 0.253 µM) | relative viability ([4]; first compound 0.8 µM) | relative viability ([4]; first compound 2.53 µM) | relative viability ([4]; first compound 8 µM)
NCI-H1975 | 0.292 | 0.283 | 0.336 | 0.282 | 0.287 | 0.931 | 1.14 | 0.934 | 0.968 | 0.926 | 0.915 | 1.04 | 0.955 | 0.948 | 0.871 | 0.929 | 1.07 | 0.956 | 0.931 | 0.863
COR-L23 | 0.722 | 0.645 | 0.697 | 0.536 | 0.774 | 0.741 | 0.992 | 0.985 | 0.99 | 0.945 | 0.499 | 0.77 | 0.503 | 0.574 | 0.632 | 0.558 | 1.09 | 0.817 | 0.872 | 0.836
HCC-15 | 0.581 | 0.748 | 0.682 | 0.691 | 0.662 | 0.642 | 1.02 | 1 | 1.03 | 1.01 | 0.616 | 0.805 | 0.919 | 0.787 | 0.814 | 0.802 | 0.877 | 0.887 | 0.968 | 0.915
NCI-H1651 | 0.572 | 0.601 | 0.559 | 0.457 | 0.558 | 0.646 | 0.89 | 0.709 | 0.723 | 0.694 | 0.853 | 0.928 | 0.859 | 0.82 | 0.826 | 0.939 | 1.01 | 1.08 | 0.869 | 0.716
CAL-12T | 0.439 | 0.395 | 0.522 | 0.386 | 0.351 | 0.918 | 1 | 1.2 | 1.06 | 1 | 0.474 | 0.616 | 0.702 | 0.686 | 0.542 | 0.695 | 0.917 | 0.756 | 0.76 | 0.786
LK-2 | – | 0.486 | 0.618 | 0.607 | 0.625 | – | 1.66 | 1.4 | 0.949 | 1.03 | – | 0.256 | 0.258 | 0.255 | 0.226 | – | 0.45 | 0.579 | 0.515 | 0.533
NCI-H1703 | 0.267 | 0.267 | 0.23 | 0.254 | 0.216 | – | 0.374 | 0.385 | 0.368 | 0.307 | 0.158 | 0.552 | 0.619 | 0.637 | 0.72 | – | 0.783 | 1.09 | 0.69 | 1.16
H3255 | 0.476 | 0.514 | 0.48 | 0.458 | 0.499 | 0.92 | 0.702 | 0.821 | 0.89 | 0.398 | 0.571 | 0.933 | 0.88 | 0.833 | 0.787 | 0.853 | 1.01 | 0.943 | 0.859 | 0.835
